Reference: PubChem BioAssay (NCI)
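Dose response: 5 concentrations. Exposure: 48 h. Format: 96-well plates. Endpoint: linear interpolation; highest concentration if not reached. TGI: concentration producing complete growth inhibition.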

Columns and labels:
Test in all cases: NCI anticancer screen, dose series, 48 h
A498 renal = system: A498 renal
CCRF-CEM leukemia = system: CCRF-CEM leukemia
LOX IMVI melanoma = system: LOX IMVI melanoma
NCI-H226 lung = system: NCI-H226 lung
RXF 393 renal = system: RXF 393 renal
UACC-257 melanoma = system: UACC-257 melanoma
BT-549 breast = system: BT-549 breast
PC-3 prostate = system: PC-3 prostate
RPMI-8226 leukemia = system: RPMI-8226 leukemia
DU-145 prostate = system: DU-145 prostate

SMILES	TGI (A498 renal) [µM]	TGI (CCRF-CEM leukemia) [µM]	TGI (LOX IMVI melanoma) [µM]	TGI (NCI-H226 lung) [µM]	TGI (RXF 393 renal) [µM]	TGI (UACC-257 melanoma) [µM]	TGI (BT-549 breast) [µM]	TGI (PC-3 prostate) [µM]	TGI (RPMI-8226 leukemia) [µM]	TGI (DU-145 prostate) [µM]
CC#C[P+](c1ccccc1)(c1ccccc1)c1ccccc1	> 100	3.57	6.75	14.2	18.9	9.59	–	–	–	–
COc1ccc(-c2c(C#N)c(O)n(NS(=O)(=O)c3ccc(C)cc3)c(=O)c2C#N)cc1	> 100	> 100	> 100	> 100	> 100	> 100	> 100	> 100	54.3	–
CCOC(=O)c1ccc(NC(=O)O/N=C(/Cl)CCl)cc1	> 100	> 100	> 100	–	–	> 100	–	> 100	> 100	> 100
N#CC1(C#N)C2CCCCC23OC(=N)C1(C#N)C(c1ccccc1)O3 (configuration not stated)	48.9	> 100	45.1	> 100	> 100	37.3	34.7	55.4	–	64.3
O=C(/C=C/C=C/c1ccccc1)c1ccc2c(c1)CCCC2	> 100	> 100	> 100	90.9	–	> 100	77.4	> 100	> 100	92.3
O=C(NC(CO)Cc1ccc(Oc2cc(CC(CO)NC(=O)OCc3ccccc3)ccc2OC(=O)OCc2ccccc2)cc1)OCc1ccccc1 (configuration not stated)	50.2	> 100	32.9	40.7	–	29	38.7	32.7	31	51.3
O=C1/C(=C/c2ccccc2)NC(=S)N1CN1CCOCC1	> 100	> 100	> 100	> 100	–	> 100	–	> 100	> 100	> 100
CC1C[C@]2(C)C(=O)Nc3ccccc3[C@@H]2Nc2ccccc21 (some centres not stated)	53.4	63.4	30.8	76.1	77.9	39.5	–	61.3	59.5	> 100
C[C@@H]1C[C@](O)([C@@H](C)Cl)C(=O)O[C@@H]2CCN3CC=C(COC(=O)[C@]1(C)O)[C@H]23	> 100	> 10	> 100	> 100	–	> 100	> 100	> 100	> 100	> 100
CC(C)=CCc1c(O)ccc2ccc(=O)oc12	> 100	> 100	> 100	> 100	> 100	84	–	–	> 100	–
CSc1nncc2[nH]c(C)nc12	> 100	> 100	> 100	> 100	–	> 100	> 100	> 100	> 100	–
Cn1c(=O)c2c(no[n+]2[O-])c2ccccc21	70.2	48.9	31.4	40.4	62	33.2	34.2	71.8	62	–
Cc1cc(OCc2nnc3n2N=C(c2cc(F)c(Cl)cc2Cl)/C(=C/c2ccc(Cl)cc2)S3)ccc1Cl	45.9	> 100	50.1	> 100	39.4	> 100	–	65	33.2	36.6
Cc1c(O)c(C)c2c(C)cn(C(=O)C(C)(C)C)c2c1C	30	55.7	92.2	33.5	41.6	–	–	38.5	84.5	43.9
CC(C)(C)[Si](C)(C)OC1/C(=C/C#N)C(n2ccc(=O)[nH]c2=O)OC1CO (configuration not stated)	> 100	–	–	–	> 100	–	–	> 100	–	> 100
N#C/C(N)=C(\C#N)NC=NCc1ccccc1	> 100	> 100	> 100	> 100	–	> 100	> 100	> 100	> 100	> 100
COc1ccc(C(=O)/C=C/c2ccncc2)cc1OC	30.9	18.6	3.05	30.6	25.7	25.5	18.6	30.6	–	31.6
COc1ccc(N2C(=O)CS(=O)(=O)C2c2cccc(Oc3ccccc3)c2)cc1 (configuration not stated)	–	> 100	29.5	52.6	19	10.9	54.1	51.9	–	> 100
O=S(=O)(O)c1ccc(N=Nc2ccc(N=Nc3c(O)ccc4ccccc34)cc2)cc1	–	> 100	> 100	> 100	> 100	> 100	> 100	> 100	> 100	> 100
CCOP(=O)(O)C(C)(C)NC	> 100	> 100	> 100	> 100	> 100	> 100	–	> 100	> 100	> 100
C[C@@H]1CCC2[C@@H](C)[C@@H](OCCO[C@H]3OC4O[C@@]5(C)CCC6[C@H](C)CCC([C@H]3C)[C@@]46OO5)OC3O[C@@]4(C)CCC1[C@]32OO4 (some centres not stated)	> 77.1	> 100	> 40.5	> 100	> 100	> 100	–	> 95.8	> 100	–
CN1C(=O)C(CC=O)(C(C)(C)C)c2ccccc21 (configuration not stated)	> 100	> 100	> 100	–	> 100	> 100	–	> 100	> 100	> 100
CC12CC(C#N)(C#N)C(C#N)(CO1)C(=N)O2 (configuration not stated)	> 100	69.1	> 100	> 100	> 100	> 100	> 100	> 100	–	> 100
O=[N+]([O-])c1cc2c(c3nonc13)OCCCCO2	47.6	4.98	12.6	28.2	20	28.9	–	41.7	16.3	28.2
COc1ccc(C(OC(C)=O)C2C(=C(C#N)C#N)c3ccccc3C2=C(C#N)C#N)cc1 (configuration not stated)	58.6	62.6	> 100	> 100	> 100	> 100	–	54.3	60.4	> 100
